Data taken from patent publication US7585852B2, “Cobalamine derivatives useful for diagnosis and treatment of abnormal cellular proliferation” (Solidago AG, priority 2003, dated 2009).
Entries after “also recorded” stand apart in the source; their conditions may differ.

Columns and labels:
transcobalamin II (TCII) = assay: Gel-shift (gel filtration) assay of radiolabeled cyanocobalamin derivatives with transport protein TC II; type: binding, rabbit; conditions: for Binding to TCII (in words): gel shift assay; for TC II reactivity: radioactive labeled derivative; for Gel filtration peak of the derivative mixed with TCII: Superdex 75 column, free derivative elutes at 1.5 kDa
Procedure: To test the binding affinity of cobalamin (Cbl) derivatives to TCII, an in vitro test is carried out with partially purified TCII obtained from the blood of rabbits. Recombinant TCII produced with an E. coli expression system can also be used as a substrate.
TC II is purified by affinity chromatography on a cyanocobalamin-agarose matrix (Sigma), The gel (5 ml) is first washed with 200 ml 50 mM Tris/1 M NaCl, pH 8.0, afterwards with 200 ml 0.1 M glycine/0.1 M glucose/1 M NaCl pH 10, and again with 200 ml 50 mM Tris/1 M NaCl. […] Bound TC II is eluted with 20 ml 4.0 Mguanidine HCl/50 mM Tris pH 8.0, and in a second step with 7.5 M guanidine HCl/50 mM Tris pH 8.0. Most of the bound TC II elutes already with 4 M guanidine HCl. Probes are dialyzed extensively against H2O for 2 days at 4° C. Typical yields are 5-30 nmol/l which translates into 7.5-10 μg of TC II (MW: 50 kDa) per rabbit.
Transcobalamin II cDNA is expressed in E. coli strain FA113, a K12 derivative with double knock-out in trxB and gor genes, where the cytoplasm forms an oxidizing environment and allows disulfide formation. The transcobalamin II protein contains a PreScission protease site followed by an N-terminal histidine tag. The protein is isolated from soluble fractions of E. coli extracts using nickel chelating sepharose. Cyanocobalamin is removed from the transcobalamin II bound to the chelating column with 8 M urea, and the transcobalamin II is afterwards released by imidazole. In some of the preparations, the His-tag is removed by a specific protease.
(§1) The interaction of radiolabeled (^57Co, ^99mTc, ^188Re, ^111In) cyanocobalamin derivatives is measured by gel-shift assay. Radiolabeled cyanocobalamin (0.05 ng to 1 ng) is allowed to react with an excess of transport proteins for 15 min at room temperature. This mixture is applied to a gel-filtration column (Superdex75, Amersham Biosciencies) in the running buffer PBS and 0.1% Tween 20. Biologically active cyanocobalamin, which binds to transport proteins, shifts from a molecular weight of about 1.4 kDa to 40-70 kDa, depending on the transport protein. Titration of the binding capacity of the transport proteins is done with ^57Co-cyanocobalamin (ICN Biomedicals GmbH, Germany; 10 μCi/50 ng).

[1] = Biodistribution of radiolabeled cyanocobalamin derivatives in tumor bearing mice; type: in vivo, balb/c mice; conditions: for Tissue distribution: Blood / Tissue distribution: Kidney / Tissue distribution: Tumor / Tissue distribution: Liver: 24 h after i.v. injection of radioactive labeled derivative, tumor bearing mice (melanoma B16-F10), vitamin-free diet, figures use percent of injected radioactivity per gram of tissue; for Tissue distribution: Liver: in %ID/g; for Accumulation in tumor relative to blood / Accumulation in tumor relative to kidney and liver: from Table 1, 24 h after i.v. injection in mice
Procedure: For in vivo studies and for binding studies to the transport vectors, very high specific activity was demanded. Therefore, 100 μl of the labeled solution were injected to an analytical HPLC system to separate the hot from the cold vitamin derivative. The eluate fraction with the highest gamma activity (ca. 300 μl) was diluted with normal saline to a concentration of 10 μCi per animal before i.v. injection. Separation condition were: acetate buffer, XTerra RP8 column, gradient: 0% methanol (0 min), 30% methanol (15 min), 100% methanol (25 min) for the b and d-derivatives, and the TEAP system as described by Schibli et al. (Bioconjugate Chem. 2000, 343-351) for the other compounds.
For biodistribution studies with ^57Co-cyanocobalamin, 0.2 μCi/1 ng of the radiolabeled cyanocobalamin is mixed with 180 μl normal saline and injected i.v. in tumor bearing balb/c mice (syngeneic mouse melanoma B16-F10). After a specified time (5 min to 24 h), animals are sacrificed, the organs weighted and counted on a gamma counter. For biodistribution studies with ^99mTc-labeled cyanocobalamin, 10 μCi/0.5 ng of the radiolabelled cyanocobalamin is mixed with normal saline and used as before. For biodistribution with ^111In-labeled cyanocobalamin, 2 μCi/5 ng of the radiolabeled cyanocobalamin is mixed with normal saline and used as before. To study the effect of Vitamin B12 deficient food, the biodistribution of labeled cyanocobalamin is compared in mice fed with normal food with the biodistribution in mice fed with vitamin B12 deficient food for a period of 2 weeks.

[2] = target: T1, transcobalamin I (TC I; haptocorrin) (Homo sapiens, UniProt P20061); assay: Gel-shift (gel filtration) assay of radiolabeled cyanocobalamin derivatives with transport protein TC I; type: binding; conditions: Superdex 75 column; free derivative elutes at 1.5 kDa
T1 construct: As a source of transcobalamin I, saliva of vegetarian human subjects is used; from tissue; host or cells: human saliva (centrifuged, diluted 1:1 with PBS, sterile filtered)
T1 sequence (P20061 24-433): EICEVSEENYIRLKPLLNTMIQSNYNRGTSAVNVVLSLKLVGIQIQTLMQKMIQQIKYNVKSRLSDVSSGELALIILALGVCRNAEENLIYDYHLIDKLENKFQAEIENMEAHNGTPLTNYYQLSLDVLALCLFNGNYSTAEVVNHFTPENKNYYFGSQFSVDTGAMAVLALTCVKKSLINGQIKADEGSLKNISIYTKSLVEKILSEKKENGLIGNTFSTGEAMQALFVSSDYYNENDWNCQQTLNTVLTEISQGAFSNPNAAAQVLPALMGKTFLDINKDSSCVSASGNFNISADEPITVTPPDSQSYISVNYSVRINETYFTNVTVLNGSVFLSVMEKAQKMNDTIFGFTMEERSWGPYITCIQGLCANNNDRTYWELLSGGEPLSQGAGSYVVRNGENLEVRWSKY
Procedure: As a source of transcobalamin I, saliva of vegetarian human subjects is used. Saliva is centrifuged at 20'000 rpm 20 min at 4° C., mixed 1:1 with PBS and sterile filtered. The binding capacity of transcobalamin I is usually 10 ng/ml.
as §1

Cyanocobalamin-5′-phosphocolamin-His-OMe [Example 25]
Binding to TCII (in words) (transcobalamin II (TCII)): bind to TCII
TC II reactivity (transcobalamin II (TCII)): + (they bind to TCII)
Tissue distribution: Blood [1]: 0.18 %ID/g
Tissue distribution: Kidney [1]: 116 %ID/g
Tissue distribution: Tumor [1]: 3.16 %ID/g
Tissue distribution: Liver [1]: 20.70

Cyanocobalamin-b-butyl-PAMA-OEt [Example 12]
Binding to TCII (in words) (transcobalamin II (TCII)): TCII non-binders
TC II reactivity (transcobalamin II (TCII)): −
Tissue distribution: Blood [1]: 0.04 %ID/g
Tissue distribution: Kidney [1]: 1.08 %ID/g
Tissue distribution: Tumor [1]: 6.13 %ID/g
Tissue distribution: Liver [1]: 0.94
Accumulation in tumor relative to blood [1]: five times or more than in blood
Accumulation in tumor relative to kidney and liver [1]: at least half the amount found in the critical organs kidney and liver

Cyanocobalamin-b-butyl-PAPAcet [Example 5]
Gel filtration peak of the derivative mixed with TCII (transcobalamin II (TCII)): 60 kDa
Binding to TCII (in words) (transcobalamin II (TCII)): does bind to TCII
TC II reactivity (transcobalamin II (TCII)): + (they bind to TCII)
Gel filtration peak of the derivative mixed with TCI [2]: 44 kDa
Tissue distribution: Blood [1]: 2.3 %ID/g
Tissue distribution: Kidney [1]: 14.1 %ID/g
Tissue distribution: Tumor [1]: 7.9 %ID/g
Tissue distribution: Liver [1]: 9.40

Cyanocobalamin-b-butyl-aminocarboxymethyl-His-OMe [Example 6]
Binding to TCII (in words) (transcobalamin II (TCII)): bind to TCII
TC II reactivity (transcobalamin II (TCII)): + (they bind to TCII)

Cyanocobalamin-b-ethyl-PAMA-OEt [Example 10]
Binding to TCII (in words) (transcobalamin II (TCII)): TCII non-binders
TC II reactivity (transcobalamin II (TCII)): −
Tissue distribution: Blood [1]: 0.1 %ID/g
Tissue distribution: Kidney [1]: 1.36 %ID/g
Tissue distribution: Tumor [1]: 0.73 %ID/g
Tissue distribution: Liver [1]: 1.45
Accumulation in tumor relative to blood [1]: five times or more than in blood
Accumulation in tumor relative to kidney and liver [1]: at least half the amount found in the critical organs kidney and liver

Cyanocobalamin-b-ethyl-Triamine [Example 22]
Binding to TCII (in words) (transcobalamin II (TCII)): TCII non-binders
TC II reactivity (transcobalamin II (TCII)): −
Tissue distribution: Blood [1]: 0.25 %ID/g
Tissue distribution: Kidney [1]: 3.54 %ID/g
Tissue distribution: Tumor [1]: 2.9 %ID/g
Tissue distribution: Liver [1]: 3.90
Accumulation in tumor relative to blood [1]: five times or more than in blood
Accumulation in tumor relative to kidney and liver [1]: at least half the amount found in the critical organs kidney and liver

Cyanocobalamin-b-hexyl-PAMA-OEt [Example 14]
Binding to TCII (in words) (transcobalamin II (TCII)): bind to TCII
TC II reactivity (transcobalamin II (TCII)): + (they bind to TCII)
Tissue distribution: Blood [1]: 1.2 %ID/g
Tissue distribution: Kidney [1]: 40 %ID/g
Tissue distribution: Tumor [1]: 3 %ID/g
Tissue distribution: Liver [1]: 8.00

Cyanocobalamin-b-propyl-His-OMe [Example 20]
Binding to TCII (in words) (transcobalamin II (TCII)): bind to TCII
TC II reactivity (transcobalamin II (TCII)): + (they bind to TCII)
Tissue distribution: Blood [1]: 2.1 %ID/g
Tissue distribution: Kidney [1]: 19.9 %ID/g
Tissue distribution: Tumor [1]: 9.2 %ID/g
Tissue distribution: Liver [1]: 21.06

Cyanocobalamin-b-propyl-PAMA-OEt [Example 11]
Gel filtration peak of the derivative mixed with TCII (transcobalamin II (TCII)): 1.5 kDa
Binding to TCII (in words) (transcobalamin II (TCII)): essentially a TCII-non binder; also recorded: TCII non-binders
TC II reactivity (transcobalamin II (TCII)): −
Gel filtration peak of the derivative mixed with TCI [2]: 44 kDa
Tissue distribution: Blood [1]: 0.09 %ID/g
Tissue distribution: Kidney [1]: 0.39 %ID/g
Tissue distribution: Tumor [1]: 1.61 %ID/g
Tissue distribution: Liver [1]: 0.44
Accumulation in tumor relative to blood [1]: five times or more than in blood
Accumulation in tumor relative to kidney and liver [1]: at least half the amount found in the critical organs kidney and liver

Cyanocobalamin-c-butyl-PAPAcet [Example 8]
Binding to TCII (in words) (transcobalamin II (TCII)): bind to TCII
TC II reactivity (transcobalamin II (TCII)): + (they bind to TCII)
Tissue distribution: Blood [1]: 2.2 %ID/g
Tissue distribution: Kidney [1]: 16.5 %ID/g
Tissue distribution: Tumor [1]: 3.6 %ID/g
Tissue distribution: Liver [1]: 8.10

Cyanocobalamin-d-propyl-PAMA-OEt [Example 18]
Binding to TCII (in words) (transcobalamin II (TCII)): TCII non-binders
TC II reactivity (transcobalamin II (TCII)): −
Tissue distribution: Blood [1]: 0.06 %ID/g
Tissue distribution: Kidney [1]: 10.4 %ID/g
Tissue distribution: Tumor [1]: 6.8 %ID/g
Tissue distribution: Liver [1]: 3.90
Accumulation in tumor relative to blood [1]: five times or more than in blood
Accumulation in tumor relative to kidney and liver [1]: at least half the amount found in the critical organs kidney and liver
